Results from patent publication US20250346582A1, “SPLEEN TYROSINE KINASE INHIBITORS AND METHODS OF USE THEREOF” (THE BOARD OF TRUSTEES OF THE UNIVERSITY OF ILLINOIS, priority 2022, published 2025).

Experiments:
[1] = test system: phosphorylation of ERK1/2 and STAT3/5; assay: Western blot of phosphorylation in HL60 cells; type: cell-based; settings: RAS-mutated HL60 cells; 5 μM
Protocol: FIGS. 3A-3D show the inhibition of the signaling activity and proliferation of HL-60 AML cells by Syk-cSH2 inhibitors. […] DMSO was used as a negative control and GAPDH as a gel loading control. […] (c) Inhibition of phosphorylation of Syk, STAT3/5 and ERK1/2 in patient-derived primary AML cells by WC36. Cells were cultured overnight in the presence of CD34+ cytokine supplement. DMSO was used as a negative control. Representative data from one (Patient 1) of four patient samples are shown here. (d) Inhibition of the proliferation of four patient AML cells by WC36 measured by the colony growth assay. The number of colonies after WC36 treatment was normalized to the enumerated colonies after DMSO treatment.
(§1) Cells were seeded at a density of 3.0×10^5 cells/well prior to incubation with inhibitors. Cells were incubated with 1-5 μM of Syk inhibitors overnight and stimulated with different antibodies: IgG2 for AML cells, IgM for Raji B cells, and OKT3 (Biolegend) for Jurkat cells. The cells were lysed in NP40 lysis buffer (50 mM Tris, pH 7.5, 150 mM NaCl, 1 mM EDTA, 1% NP40, 10% glycerol, 10 mM NaF, 10 mM Na3VO4, and the protease inhibitor cocktail) at 4° C. and the cell debris was removed by centrifugation. Samples were analyzed by SDS-PAGE. Proteins were separated and transferred to Immobilon-P polyvinylidene difluoride membrane (Millipore Sigma). The membrane was blocked with 5% bovine serum albumin for 1 h and incubated overnight at 4° C. with various antibodies (1:1000 dilution for all antibodies). After the unbound antibodies were removed by washing with 0.1% Tris buffer saline with 0.1% Tween20, the membranes were incubated with the horseradish peroxidase secondary antibody (1:5000 dilution) for 1 h at room temperature. The membranes were washed three more times with 0.1% Tris buffer saline with 0.1% Tween20 to remove the unbound horseradish peroxidase secondary antibody before imaging. The chemiluminescence intensity of protein bands in the gel was analyzed and documented by the Azure 500Q Imaging System.

MV4-11 cells = assay: XTT cell proliferation assay, MV4-11 cells; type: cell-based
Protocol: MV4-11 or HL-60 cells were seeded into a clear-bottom 96-well plate containing varying concentrations of inhibitors in the optimal growth media described above and the mixtures were incubated for 16 h. Cells were then treated with a mixture of XTT-labeling reagents and the electron coupling reagents according to the manufacturer's protocol (Roche). After 4 h, the absorbance values at 475 nm and at 660 nm were simultaneously measured by Synergy™ Neo spectrofluorometer at 25° C. Cells with the growth media was used for background correction.

[2] = test system: phosphorylation of Syk, STAT3/5 and ERK1/2; assay: Western blot of IgG2-stimulated phosphorylation in MV4-11 AML cells; type: cell-based; settings: MV4-11 cells, 5 μM overnight
Protocol: FIGS. 2A-2D show the inhibition of the signaling activity and proliferation of MV4-11 AML cells by Syk-cSH2 inhibitors. […] GAPDH was used as a gel loading control. […] Imax and IC50 values were determined by non-linear least-squares analysis of data using the equation: I=Imax/(1+IC50/[inhibitor]) where I indicates % inhibition at a given inhibitor concentration ([inhibitor]). (c) Inhibition of IgG2-stimulated phosphorylation of Syk, STAT3/STAT5 and ERK1/2 in entospletinib-resistant MV-4-11 cells by 5 μM of WC35, WC36, and WC38.
as §1

BLNK-SH2 = target: T1, BLNK-SH2 (Homo sapiens, UniProt Q8WV28); assay: Fluorescence quenching vesicle binding assay, BLNK-SH2; settings: Table 4; POPC/POPS/PIP3/dabsyl-PE (67:20:3:10) vesicles (40 μM); read-out: Imax (%)
T1 construct: All SH2 domain constructs were cloned into the pRSET-B vector; polyhistidine (N); made in house; host or cells: Escherichia coli BL21 (DE3) pLysS
T1 sequence (Q8WV28 346-453 limits assumed): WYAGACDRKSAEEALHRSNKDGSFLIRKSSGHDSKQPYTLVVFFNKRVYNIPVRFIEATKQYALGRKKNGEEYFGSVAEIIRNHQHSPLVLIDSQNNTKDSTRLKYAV
Protocol: The membrane-binding assay is based on fluorescence quenching of EGFP fused to a SH2 domain by a dark quencher containing lipid, dabsyl-PE, incorporated in lipid vesicles. The plate reader assay was performed using the Synergy™ Neo spectrofluorometer at 25° C. Nontreated black polystyrene 96-well plates (Corning) were used. Protein (10-50 nM) with the increasing concentration of vesicles with a given lipid composition in 20 mM Tris buffer, pH 7.4, containing 0.16 M NaCl was added to each row of wells and the EGFP fluorescence emission at 516 nm was measured with excitation set at 485 nm. Z′ factor for the assay system was determined as described^74. Imax and IC50 values of inhibitors were determined using the equation, I=Imax/(1+IC50/[I]) where I and [I] indicate % inhibition and inhibitor concentration, respectively. The average and standard deviation values were obtained from triplicate determinations.
We also optimized a recently developed fluorescence quenching-based lipid-binding assay^47 for high-throughput screening of these molecules for their inhibitory activity against the PIP3-SH2 interaction. Specifically, we expressed SH2 domains as EGFP-tagged proteins and directly quantified their membrane binding by monitoring the quenching of EGFP fluorescence emission intensity by a dark quencher-containing lipid, N-dimethylaminoazo-benzenesulfonyl-phosphatidylethanolamine (dabsyl-PE), incorporated in the vesicles. We then screened for compounds that inhibited binding of Syk-cSH2, BLNK-SH2, and PLCγ2-cSH2, respectively, to 1-palmitoyl-2-oleoyl-PC (POPC)/1-palmitoyl-2-oleoyl-PS (POPS)/PIP3/dabsyl-PE (67:20:3:10) vesicles while eliminating those that inhibit their non-specific binding to anionic POPC/POPS/dabsyl-PE (70:20:10) vesicles. The quality of the screening system was evaluated using 1% dimethylsulfoxide (DMSO) and 20 μM D-myo-inositol-1,3,4,5-tetraphosphate (IP4) as negative and positive controls, respectively. The clear separation of positive and negative control data and the average Z′-factor of 0.7 supported the robustness of our system for high-throughput screen of PIP3-SH2 interaction inhibitors.

pSyk = target: T2, pSyk (Homo sapiens, UniProt P43405); assay: Western blot inhibition of Syk phosphorylation in Raji B cells; type: cell-based; settings: Immunoblotting, Western blot assay in Raji B cells
T2 construct: endogenous in cells; host or cells: Raji B cells, IgM-stimulated
Protocol: (a) Cellular efficacy of WC35, WC36, and WC38 was determined by dose-dependent inhibition of Syk phosphorylation in Raji B cells. (b) Imax and IC50 values were determined by non-linear least-squares analysis of data using the equation: […] Each data represents average ±s.d. from triplicate measurements. […] Jurkat T cells were stimulated by OKT3. Cells were seeded at a density of 3.0×10^5 cells/well prior to incubation with inhibitors. […] IgG2 for AML cells, IgM for Raji B cells, and OKT3 (Biolegend) for Jurkat cells. […] Samples were analyzed by SDS-PAGE. Proteins were separated and transferred to Immobilon-P polyvinylidene difluoride membrane (Millipore Sigma). […] The chemiluminescence intensity of protein bands in the gel was analyzed and documented by the Azure […] Imaging System.

Emax (BLNK-SH2)	IC50 (pSyk)	Imax (%) (pSyk)	SMILES	inhibition of phosphorylation of ERK1/2 and STAT3/5 [1]	inhibition of cell proliferation (XTT assay) (MV4-11 cells)	inhibition of phosphorylation of Syk, STAT3/5 and ERK1/2 [2]
< 10%	180 ± 50 nM	58 ± 5%	[N-]=[N+]=C(C(=O)OC1CCCCC1)C(Nc1ncccn1)c1ccco1 (racemic) [WC35, Cyclohexyl 2-diazo-3-(furan-2-yl)-3-(pyrimidin-2-ylamino)propanoate]	less active then WC36	modestly more active than WC38 and entospletinib	less active than entospletinib for both Syk and ERK1/2 inhibition
< 10%	52 ± 10 nM	67 ± 5%	[N-]=[N+]=C(C(=O)OC1CCCCC1)C(Nc1ncccn1)c1c[nH]c2ccccc12 (racemic) [WC36, Cyclohexyl 2-diazo-3-(1H-indol-3-yl)-3-(pyrimidin-2-ylamino)propanoate]	potent against phosphorylation of ERK1/2 and STAT3	modestly more active than WC38 and entospletinib	suppressed phosphorylation of Syk and STAT3/5 as potently as entospletinib but were modestly less active than entospletinib for ERK1/2 inhibition
< 10%	180 ± 30 nM	65 ± 3%	[N-]=[N+]=C(C(=O)OC1CCCCC1)C(Nc1ncccn1)c1ccc[nH]1 (racemic) [WC38, Cyclohexyl 2-diazo-3-(pyrimidin-2-ylamino)-3-(1H-pyrrol-2-yl)propanoate]	less active then WC36		suppressed phosphorylation of Syk and STAT3/5 as potently as entospletinib but were modestly less active than entospletinib for ERK1/2 inhibition
